Like-named read-outs stand apart in the source and are kept apart here. Values belong to the molecule of their own block, whether it stands above or below them.
What was measured:
PI3Kδ [1] = target: T1, PI3Kδ (Homo sapiens, UniProt O00329); experiment: PI3Kδ inhibitory activity; format: biochemical; conditions: mean of at least two experiments; for inhibition at 0.1 µM: at the concentration of 100 nM
Ramos = experiment: Anti-proliferative activity, MTT reduction method; format: cell-based; conditions: Homo sapiens, mean of at least two experiments
Raji = experiment: Anti-proliferative activity, MTT reduction method; format: cell-based; conditions: Homo sapiens, mean of at least two experiments
RPMI-8226 = experiment: Anti-proliferative activity, MTT reduction method; format: cell-based; conditions: Homo sapiens, mean of at least two experiments
SU-DHL-6 = experiment: Anti-proliferative activity, CCK-8 method; format: cell-based; conditions: Homo sapiens, mean of at least two experiments
PI3Kδ [2] = target: T1, PI3Kδ; conditions: cited from earlier work
PI3Kα = PI3Kα (Homo sapiens, UniProt P42336); experiment: PI3K isoform selectivity, p110α; format: biochemical; conditions: for IC50: mean of at least two experiments
PI3Kβ = PI3Kβ (Homo sapiens, UniProt P42338); experiment: PI3K isoform selectivity, p110β; format: biochemical; conditions: for IC50: mean of at least two experiments
PI3Kγ = PI3Kγ (Homo sapiens, UniProt P48736); experiment: PI3K isoform selectivity, p110γ; format: biochemical; conditions: for IC50: mean of at least two experiments
[3] = Table 3 isoform selectivity, read-out: p110δ IC50

T1 sequence (O00329 whole entry): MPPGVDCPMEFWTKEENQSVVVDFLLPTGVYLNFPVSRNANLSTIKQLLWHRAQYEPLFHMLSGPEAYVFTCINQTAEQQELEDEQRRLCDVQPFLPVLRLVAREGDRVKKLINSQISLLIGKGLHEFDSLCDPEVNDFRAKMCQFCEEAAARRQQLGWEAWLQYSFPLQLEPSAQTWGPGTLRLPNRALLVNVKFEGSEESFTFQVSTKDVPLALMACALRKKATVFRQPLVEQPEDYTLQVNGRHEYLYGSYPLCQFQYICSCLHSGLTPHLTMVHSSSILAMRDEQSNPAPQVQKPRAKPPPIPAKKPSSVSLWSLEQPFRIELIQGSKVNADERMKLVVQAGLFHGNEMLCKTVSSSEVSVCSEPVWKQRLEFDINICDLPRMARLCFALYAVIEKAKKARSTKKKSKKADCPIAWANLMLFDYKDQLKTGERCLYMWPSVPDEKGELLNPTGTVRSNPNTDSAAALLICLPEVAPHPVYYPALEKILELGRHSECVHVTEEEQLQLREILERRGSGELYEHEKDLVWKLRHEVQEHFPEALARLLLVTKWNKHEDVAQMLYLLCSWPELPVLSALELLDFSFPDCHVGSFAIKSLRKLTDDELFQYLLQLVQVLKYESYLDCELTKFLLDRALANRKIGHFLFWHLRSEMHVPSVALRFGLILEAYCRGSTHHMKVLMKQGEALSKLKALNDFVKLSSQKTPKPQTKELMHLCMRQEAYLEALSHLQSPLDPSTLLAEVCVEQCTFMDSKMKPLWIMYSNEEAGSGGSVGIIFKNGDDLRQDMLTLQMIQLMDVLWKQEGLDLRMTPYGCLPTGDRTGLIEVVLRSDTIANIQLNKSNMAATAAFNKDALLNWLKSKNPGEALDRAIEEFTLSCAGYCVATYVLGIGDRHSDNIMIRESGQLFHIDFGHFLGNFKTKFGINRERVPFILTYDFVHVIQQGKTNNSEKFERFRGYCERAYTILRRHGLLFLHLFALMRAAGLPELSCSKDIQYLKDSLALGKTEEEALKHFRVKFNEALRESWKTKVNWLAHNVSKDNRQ
T1 sequence (P27986 whole entry partner): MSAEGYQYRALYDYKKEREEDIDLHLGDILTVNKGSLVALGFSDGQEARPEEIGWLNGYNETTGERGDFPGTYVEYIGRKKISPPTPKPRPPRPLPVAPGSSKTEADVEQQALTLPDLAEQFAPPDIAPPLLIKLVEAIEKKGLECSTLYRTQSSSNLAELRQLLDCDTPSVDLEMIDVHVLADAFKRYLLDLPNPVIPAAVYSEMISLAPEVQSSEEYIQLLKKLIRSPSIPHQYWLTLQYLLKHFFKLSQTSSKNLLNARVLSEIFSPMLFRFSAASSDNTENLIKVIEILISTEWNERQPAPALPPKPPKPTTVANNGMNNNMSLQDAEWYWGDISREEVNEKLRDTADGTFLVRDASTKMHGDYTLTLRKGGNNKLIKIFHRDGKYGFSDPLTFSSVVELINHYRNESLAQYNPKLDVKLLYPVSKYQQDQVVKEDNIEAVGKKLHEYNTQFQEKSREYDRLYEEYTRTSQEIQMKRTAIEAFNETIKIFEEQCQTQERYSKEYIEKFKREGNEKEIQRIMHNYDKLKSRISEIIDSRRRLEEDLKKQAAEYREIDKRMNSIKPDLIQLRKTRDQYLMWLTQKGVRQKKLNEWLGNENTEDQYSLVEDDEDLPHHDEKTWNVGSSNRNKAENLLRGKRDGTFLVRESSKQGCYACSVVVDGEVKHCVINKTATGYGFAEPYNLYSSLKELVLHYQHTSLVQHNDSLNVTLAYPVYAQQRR
Chain of PI3Kα (P42336 whole entry, species assumed, canonical isoform): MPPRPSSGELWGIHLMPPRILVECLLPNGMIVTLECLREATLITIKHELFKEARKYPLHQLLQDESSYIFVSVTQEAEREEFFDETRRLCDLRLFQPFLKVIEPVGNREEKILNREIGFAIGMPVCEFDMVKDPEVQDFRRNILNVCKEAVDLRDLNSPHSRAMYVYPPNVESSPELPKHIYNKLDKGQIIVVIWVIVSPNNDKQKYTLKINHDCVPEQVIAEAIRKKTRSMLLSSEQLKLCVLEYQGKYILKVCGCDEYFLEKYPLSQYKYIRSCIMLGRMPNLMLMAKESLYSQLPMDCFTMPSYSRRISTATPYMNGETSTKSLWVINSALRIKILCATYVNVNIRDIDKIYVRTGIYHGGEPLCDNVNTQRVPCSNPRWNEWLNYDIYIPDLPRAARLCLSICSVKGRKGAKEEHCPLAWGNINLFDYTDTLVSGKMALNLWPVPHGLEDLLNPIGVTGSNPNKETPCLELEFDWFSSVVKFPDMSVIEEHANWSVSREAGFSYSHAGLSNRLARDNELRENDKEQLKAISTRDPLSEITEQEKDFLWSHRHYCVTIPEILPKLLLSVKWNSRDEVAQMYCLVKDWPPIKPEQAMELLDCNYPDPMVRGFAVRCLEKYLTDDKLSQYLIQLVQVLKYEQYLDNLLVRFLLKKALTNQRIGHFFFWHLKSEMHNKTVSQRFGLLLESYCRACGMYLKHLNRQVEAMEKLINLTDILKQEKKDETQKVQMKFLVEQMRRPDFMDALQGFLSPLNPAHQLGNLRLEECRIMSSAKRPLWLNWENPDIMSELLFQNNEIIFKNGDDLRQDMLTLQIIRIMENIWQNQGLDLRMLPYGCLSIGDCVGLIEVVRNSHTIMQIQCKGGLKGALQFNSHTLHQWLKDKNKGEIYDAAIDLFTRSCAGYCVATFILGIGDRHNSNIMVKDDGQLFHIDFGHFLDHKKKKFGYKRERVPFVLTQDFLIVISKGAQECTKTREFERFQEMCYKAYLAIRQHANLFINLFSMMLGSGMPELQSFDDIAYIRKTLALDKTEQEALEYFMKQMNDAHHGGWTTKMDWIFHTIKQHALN
Chain of PI3Kα (P27986 whole entry partner, species assumed, canonical isoform): as the sequence (P27986 whole entry partner) above
Chain of PI3Kγ (P48736 whole entry, species assumed, canonical isoform): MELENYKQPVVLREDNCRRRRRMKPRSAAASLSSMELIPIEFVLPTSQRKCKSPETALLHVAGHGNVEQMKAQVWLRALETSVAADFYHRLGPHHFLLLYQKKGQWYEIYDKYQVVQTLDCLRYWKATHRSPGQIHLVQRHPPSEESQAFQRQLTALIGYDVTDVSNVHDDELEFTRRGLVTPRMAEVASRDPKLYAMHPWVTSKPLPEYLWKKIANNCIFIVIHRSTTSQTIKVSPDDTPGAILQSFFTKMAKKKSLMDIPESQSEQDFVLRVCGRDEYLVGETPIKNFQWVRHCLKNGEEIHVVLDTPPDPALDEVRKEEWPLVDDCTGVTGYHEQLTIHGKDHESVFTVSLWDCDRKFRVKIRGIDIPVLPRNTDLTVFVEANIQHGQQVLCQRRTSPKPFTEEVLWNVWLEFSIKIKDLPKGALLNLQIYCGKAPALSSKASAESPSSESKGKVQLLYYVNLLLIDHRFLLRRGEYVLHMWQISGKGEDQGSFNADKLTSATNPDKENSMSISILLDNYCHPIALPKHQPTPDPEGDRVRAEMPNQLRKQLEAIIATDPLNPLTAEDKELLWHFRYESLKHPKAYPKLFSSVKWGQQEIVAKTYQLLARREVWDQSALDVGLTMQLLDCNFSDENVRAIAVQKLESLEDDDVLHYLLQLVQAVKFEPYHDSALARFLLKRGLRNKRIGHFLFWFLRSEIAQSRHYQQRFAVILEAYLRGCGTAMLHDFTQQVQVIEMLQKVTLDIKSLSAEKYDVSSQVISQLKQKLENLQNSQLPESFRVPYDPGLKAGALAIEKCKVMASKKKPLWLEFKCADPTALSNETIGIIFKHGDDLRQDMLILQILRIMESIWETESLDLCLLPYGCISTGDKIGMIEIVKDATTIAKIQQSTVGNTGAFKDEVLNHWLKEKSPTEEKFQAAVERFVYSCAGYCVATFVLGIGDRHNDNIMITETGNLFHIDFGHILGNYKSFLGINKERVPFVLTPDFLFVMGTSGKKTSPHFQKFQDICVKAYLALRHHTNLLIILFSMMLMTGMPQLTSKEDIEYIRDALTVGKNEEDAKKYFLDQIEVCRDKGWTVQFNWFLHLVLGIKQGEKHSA
Chain of PI3Kβ (P42338 whole entry, species assumed, canonical isoform): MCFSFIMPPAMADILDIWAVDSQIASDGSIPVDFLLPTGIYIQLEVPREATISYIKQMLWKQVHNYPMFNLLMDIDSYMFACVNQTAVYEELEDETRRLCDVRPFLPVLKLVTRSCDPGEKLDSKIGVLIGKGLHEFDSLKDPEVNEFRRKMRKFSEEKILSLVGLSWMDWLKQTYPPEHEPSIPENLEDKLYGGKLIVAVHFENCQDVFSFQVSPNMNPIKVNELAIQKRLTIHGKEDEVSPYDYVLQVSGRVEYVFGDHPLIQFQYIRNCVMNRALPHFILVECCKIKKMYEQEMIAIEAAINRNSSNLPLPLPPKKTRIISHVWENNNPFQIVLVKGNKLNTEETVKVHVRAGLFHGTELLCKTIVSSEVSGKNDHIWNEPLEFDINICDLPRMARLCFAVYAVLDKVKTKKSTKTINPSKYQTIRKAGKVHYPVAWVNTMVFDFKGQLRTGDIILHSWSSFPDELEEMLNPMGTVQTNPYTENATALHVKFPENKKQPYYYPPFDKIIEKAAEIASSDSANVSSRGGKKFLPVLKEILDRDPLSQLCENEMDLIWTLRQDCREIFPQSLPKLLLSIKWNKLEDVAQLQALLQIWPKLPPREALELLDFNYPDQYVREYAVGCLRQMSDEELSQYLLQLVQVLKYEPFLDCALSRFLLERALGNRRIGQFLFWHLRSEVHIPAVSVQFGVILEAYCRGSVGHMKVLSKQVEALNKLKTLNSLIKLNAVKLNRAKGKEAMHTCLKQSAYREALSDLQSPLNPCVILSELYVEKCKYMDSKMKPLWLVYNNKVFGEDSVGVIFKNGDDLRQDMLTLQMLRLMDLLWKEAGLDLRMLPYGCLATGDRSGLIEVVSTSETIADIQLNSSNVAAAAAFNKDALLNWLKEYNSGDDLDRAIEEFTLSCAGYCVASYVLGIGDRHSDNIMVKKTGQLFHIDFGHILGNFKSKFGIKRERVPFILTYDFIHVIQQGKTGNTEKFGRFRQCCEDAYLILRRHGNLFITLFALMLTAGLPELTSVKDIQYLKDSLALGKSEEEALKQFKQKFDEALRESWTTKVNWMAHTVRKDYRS
Chain of PI3Kβ (P27986 whole entry partner, species assumed, canonical isoform): as the sequence (P27986 whole entry partner) above

inhibition at 0.1 µM (PI3Kδ [1]): 96%
IC50 (Ramos): > 10000 nM
IC50 (Raji): 9950 nM
IC50 (RPMI-8226): 5490 nM
IC50 (SU-DHL-6): 650 nM
SMILES: CC[C@H](Nc1ncnc2[nH]cnc12)c1nc2cccc(F)c2c(=O)n1-c1ccccc1 [Compound 1, idelalisib, reference compound]

SMILES: C[C@H](Nc1nc(N)nc(N)c1C#N)c1nc2cccc(F)c2c(=O)n1-c1cc(F)cc(F)c1 [Compound 3]
IC50 (PI3Kδ [2]; idelalisib-derived analogues): 2.2 nM

SMILES: COc1ncc(-c2ccc3ncnc(Nc4cccc(C(=O)N5CCOCC5)c4)c3c2)cc1C#N [Compound 8]
IC50 (PI3Kδ [2]; 4-anilinequinazoline): 9.3 nM

inhibition at 0.1 µM (PI3Kδ [1]): 79%
SMILES: COc1ccc(-c2ccc3ncnc(O[C@H]4CCN(C(=O)OC(C)(C)C)C4)c3c2)cn1 [Compound 12a]

inhibition at 0.1 µM (PI3Kδ [1]): 90%
IC50 (PI3Kδ [1]; read-out: PI3Kδ IC50): 9.3 nM
SMILES: COc1ccc(-c2ccc3ncnc(O[C@H]4CCN(C(=O)C5CC5)C4)c3c2)cn1 [Compound 12b]

inhibition at 0.1 µM (PI3Kδ [1]): 96%
IC50 (PI3Kδ [1]; read-out: PI3Kδ IC50): 6.1 nM
SMILES: COc1ccc(-c2ccc3ncnc(O[C@H]4CCN(C(=O)C5CCC5)C4)c3c2)cn1 [Compound 12c]

IC50 (PI3Kδ [1]; [3]): 4.9 nM
inhibition at 0.1 µM (PI3Kδ [1]): 98%
IC50 (PI3Kδ [1]; read-out: PI3Kδ IC50): 4.9 nM
PI3Kδ selectivity over PI3Kα (PI3Kα): 11 fold
IC50 (PI3Kα): 50.4 nM
PI3Kδ selectivity over PI3Kβ (PI3Kβ): 131 fold
IC50 (PI3Kβ): 592 nM
PI3Kδ selectivity over PI3Kγ (PI3Kγ): 103 fold
IC50 (PI3Kγ): 468 nM
IC50 (Ramos): 1340 nM
IC50 (Raji): 9810 nM
IC50 (RPMI-8226): 440 nM
IC50 (SU-DHL-6): 3230 nM
SMILES: COc1ccc(-c2ccc3ncnc(O[C@H]4CCN(C(=O)C5CCOCC5)C4)c3c2)cn1 [Compound 12d]

inhibition at 0.1 µM (PI3Kδ [1]): 53%
SMILES: COc1ccc(-c2ccc3ncnc(O[C@H]4CCN(C(=O)C(C)(C)C)C4)c3c2)cn1 [Compound 12e]

inhibition at 0.1 µM (PI3Kδ [1]): 51%
SMILES: COc1ccc(-c2ccc3ncnc(N[C@H]4CCCN(C(=O)OC(C)(C)C)C4)c3c2)cn1 [Compound 14a]

IC50 (PI3Kδ [1]; [3]): 3 nM
inhibition at 0.1 µM (PI3Kδ [1]): 94%
IC50 (PI3Kδ [1]; read-out: PI3Kδ IC50): 3 nM
PI3Kδ selectivity over PI3Kα (PI3Kα): 12 fold
IC50 (PI3Kα): 36.6 nM
PI3Kδ selectivity over PI3Kβ (PI3Kβ): 105 fold
IC50 (PI3Kβ): 317 nM
PI3Kδ selectivity over PI3Kγ (PI3Kγ): 34 fold
IC50 (PI3Kγ): 104 nM
IC50 (Ramos): 1340 nM
IC50 (Raji): 810 nM
IC50 (RPMI-8226): 8660 nM
IC50 (SU-DHL-6): 1040 nM
SMILES: COc1ccc(-c2ccc3ncnc(N[C@H]4CCCN(C(=O)C5CC5)C4)c3c2)cn1 [Compound 14b]

IC50 (PI3Kδ [1]; [3]): 3.9 nM
inhibition at 0.1 µM (PI3Kδ [1]): 91%
IC50 (PI3Kδ [1]; read-out: PI3Kδ IC50): 3.9 nM
PI3Kδ selectivity over PI3Kα (PI3Kα): 15 fold
IC50 (PI3Kα): 58.9 nM
PI3Kδ selectivity over PI3Kβ (PI3Kβ): 96 fold
IC50 (PI3Kβ): 376 nM
PI3Kδ selectivity over PI3Kγ (PI3Kγ): 31 fold
IC50 (PI3Kγ): 121 nM
IC50 (SU-DHL-6): 1490 nM
SMILES: COc1ccc(-c2ccc3ncnc(N[C@H]4CCCN(C(=O)C5CCC5)C4)c3c2)cn1 [Compound 14c]

inhibition at 0.1 µM (PI3Kδ [1]): 91%
IC50 (PI3Kδ [1]; read-out: PI3Kδ IC50): 8.7 nM
SMILES: COc1ccc(-c2ccc3ncnc(N[C@H]4CCCN(C(=O)C5CCCC5)C4)c3c2)cn1 [Compound 14d]

inhibition at 0.1 µM (PI3Kδ [1]): 88%
IC50 (PI3Kδ [1]; read-out: PI3Kδ IC50): 5.2 nM
SMILES: COc1ccc(-c2ccc3ncnc(N[C@H]4CCCN(C(=O)C5CCOCC5)C4)c3c2)cn1 [Compound 14e]

inhibition at 0.1 µM (PI3Kδ [1]): 54%
SMILES: COc1ccc(-c2ccc3ncnc(N[C@H]4CCCN(C(=O)C(C)(C)C)C4)c3c2)cn1 [Compound 14f]

inhibition at 0.1 µM (PI3Kδ [1]): 72%
SMILES: COc1ccc(-c2ccc3ncnc(NC4CCN(C(=O)OC(C)(C)C)CC4)c3c2)cn1 [Compound 16a]

inhibition at 0.1 µM (PI3Kδ [1]): 70%
SMILES: COc1ccc(-c2ccc3ncnc(NC4CCN(C(=O)C5CC5)CC4)c3c2)cn1 [Compound 16b]

inhibition at 0.1 µM (PI3Kδ [1]): 48%
SMILES: COc1ccc(-c2ccc3ncnc(NC4CCN(C(=O)C5CCOCC5)CC4)c3c2)cn1 [Compound 16c]

IC50 (RPMI-8226): 660 nM
SMILES: O=C(CCCCCCC(=O)Nc1ccccc1)NO [SAHA, vorinostat, reference compound]
